The test system of assay [1] is MKN-45 (human gastric cancer cells). Briefly: Proliferation inhibitory effect against human cancer cells, MKN-45. Type of assay: cell-based. Particulars: MKN-45, 72 h, c-met amplified cell, 3 days, Cell Counting Kit-8. The procedure: (§1) Six kinds of human cancer cells are suspended in RPMI1640 medium (purchased from Sigma) containing 10% FBS, respectively. The cell suspensions (MKN-45: 1.5×10^4 cells/ml, SNU-5: 5×10^4 cells/ml, EBC-1: 3×10^4 cells/ml, MKN-74: 2.5×10^4 cells/ml, SNU-1: 2.5×10^4 cells/ml, A549: 1.5×10^4 cells/ml) were added to a cell culture 96-well plate (purchased from NUNC, product number: 167008) at 0.1 ml/well, and cultured overnight in a 5% CO2 incubator (37° C.). After the culture, 0.1 ml of a test substance diluted with RPMI1640 medium containing 10% FBS and the culture was continued for 3 days in a 5% CO2 incubator (37° C.). After the culture, 10 μl of Cell Counting Kit-8 (purchased from DOJINDO, product number: 343-07623) was added to each well and the incubation was performed for 0.5 to 3 hours in a 5% CO2 incubator (37° C.). After the incubation, absorbance of each well was measured by a plate reader MTP-500 (Corona Electric Co., Ltd.) with measurement wavelength 450 nm and reference wavelength 660 nm.

Assay [2] has as its system SNU-1 (human gastric cancer cells). Briefly: Proliferation inhibitory effect against human cancer cells, SNU-1. Type of assay: cell-based. Particulars: SNU1, 72 h, c-met non-amplified cell, 3 days, Cell Counting Kit-8. As for the experimental part:
as §1

Assay [3] has as its system SNU-5 (human gastric cancer cells). Briefly: Proliferation inhibitory effect against human cancer cells, SNU-5. Type of assay: cell-based. Particulars: SNU-5, 72 h, c-met amplified cell, 3 days, Cell Counting Kit-8. As for the experimental part: as §1
Assay [4] has as its system EBC-1 (human lung cancer cells). Briefly: Proliferation inhibitory effect against human cancer cells, EBC-1. The class given is cell-based. Particulars: EBC-1, 72 h, c-met amplified cell, 3 days, Cell Counting Kit-8. The procedure: as §1
On the technique in general: Formazan colour is commonly taken as a measure of viable cells.

For assay [5], the system named is A549 (human lung cancer cells). Briefly: Proliferation inhibitory effect against human cancer cells, A549. The class given is cell-based. Particulars: A549, 72 h, c-met non-amplified cell, 3 days, Cell Counting Kit-8. The procedure:
as §1

Assay [6] has as its system MKN-74 (human gastric cancer cells). In words: Proliferation inhibitory effect against human cancer cells, MKN-74. The class given is cell-based. The following applies: MKN-74, 72 h, c-met non-amplified cell, 3 days, Cell Counting Kit-8. The procedure:
as §1

The subject of assay [7] is Human gastric cancer cells (MKN-45). In words: Tumor proliferation inhibitory effect against human cancer cells (MKN-45), subcutaneous transplant. The class given is in vivo, BALB/c(nu/nu) mice. The following applies: orally twice a day, fifth day. The procedure:
Human gastric cancer cells (MKN-45) were suspended in HBSS (purchased from GIBCO BRL). The cell suspension (5×10^7 cells/ml; 0.1 ml) was transplanted to the subcutaneous parts of the right flank of 7-week female BALB/c(nu/nu) mice. When the tumor volume reached 100-200 mm^3, mice were grouped so that the average of the tumor volume was equable in each group, and 0.5% methylcellulose in hydrochloric acid-glucose solution (0.1N hydrochloric acid:5% glucose solution=1:9) or a test substance suspended in dimethylsulfoxide-Tween-glucose solution (dimethylsulfoxide:Tween:5% glucose solution (containing equimolar hydrochloric acid of the test substance)=7:13:80) was orally administered to mice daily twice a day. The tumor volume was measured on the fifth day from the administration of the test substance. The long and short diameters of the tumor were measured with a caliper and the tumor volume was calculated according to the equation: 1/2×long diameter×short diameter×short diameter. The experiment was conducted in a control group (vehicle administered group) of 10 animals as well as in the test substance administered group of 5 animals. Tumor proliferation rate (%) was defined as the ration of the tumor volume of the test substance administered group to the tumor volume of control group and shown in table 9

[8] abbreviates: 12.5 mg/kg weight/administration.
[9] abbreviates: 100 mg/kg weight/administration.

`CN1CCC(N(C)C(=O)Nc2cc(Oc3cc(F)c(NC(=O)C4(C(=O)Nc5ccc(F)cc5)CC4)cc3F)ccn2)CC1` [Example 94, N-(2,5-Difluoro-4-{[2-({[methyl(1-methylpiperidin-4-yl)amino]carbonyl}amino)pyridin-4-yl]oxy}phenyl)-N′-(4-fluorophenyl)cyclopropane-1,1-dicarboxamide]: the IC50 – broadly, the midpoint of a concentration-inhibition curve – in assay [1] turned out to be 2.3 nM; in assay [2], 1600 nM; in assay [3], 1.7 nM; in assay [4], 2.4 nM; in assay [5] it was 1800 nM; in assay [6] it was 1.9 µM.

Take `O=C(Nc1cc(Oc2ccc(NC(=O)C3(C(=O)Nc4ccc(F)cc4)CC3)c(F)c2)ccn1)N1CCC1` [Example 61, N-[4-({2-[(Azetidin-1-ylcarbonyl)amino]pyridin-4-yl}oxy)-2-fluorophenyl]-N′-(4-fluorophenyl)cyclopropane-1,1-dicarboxamide]: the IC50 in assay [1] is 60 nM; in assay [2], > 10000 nM; in assay [3], 38 nM; in assay [4] it was 65 nM; in assay [5] it was > 10000 nM; in assay [6] it was 4.2 µM. Besides, the “tumor proliferation rate(%)” value in assay [7] (setting [8]) came to 35.8%.

In the case of `O=C(Nc1cc(Oc2cc(F)c(NC(=O)C3(C(=O)Nc4ccc(F)cc4)CC3)cc2F)ccn1)N1CC(CO)C1` [Example 96, N-(2,5-Difluoro-4-{[2-({[3-(hydroxymethyl)azetidin-1-yl]carbonyl}amino)pyridin-4-yl]oxy}phenyl)-N′-(4-fluorophenyl)cyclopropane-1,1-dicarboxamide], the IC50 in assay [1] turned out to be 4.7 nM; in assay [2], 3600 nM; in assay [3], 4.9 nM; in assay [4], 4.5 nM; in assay [5] it was 2000 nM; in assay [6] it was 3.3 µM.

On to `CN1CCN(C2CCN(C(=O)Nc3cc(Oc4ccc(NC(=O)C5(C(=O)Nc6ccc(F)cc6)CC5)c(F)c4)ccn3)CC2)CC1` [Example 15, N-(2-Fluoro-4-{[2-({[4-(4-methylpiperazin-1-yl)piperidin-1-yl]carbonyl}amino)pyridin-4-yl]oxy}phenyl)-N-(4-fluorophenyl)cyclopropane-1,1-dicarboxamide], for which the IC50 worked out at 15 nM in assay [1]; 4200 nM in assay [2]; 6.2 nM in assay [3]; 17 nM in assay [4]; 2600 nM in assay [5]; 4.3 µM in assay [6]. Besides, the “tumor proliferation rate(%)” value in assay [7] (30 mg/kg weight/administration) is listed as 29.7%; in assay [7] (setting [9]), 19.9%.

Take `CN1CCN(C2CCN(C(=O)Nc3cc(Oc4cc(F)c(NC(=O)C5(C(=O)Nc6ccc(F)cc6)CC5)cc4F)ccn3)CC2)CC1` [Example 92, N-(2,5-Difluoro-4-{[2-({[4-(4-methylpiperazin-1-yl)piperidin-1-yl]carbonyl}amino)pyridin-4-yl]oxy}phenyl)-N′-(4-fluorophenyl)cyclopropane-1,1-dicarboxamide]: the IC50 came to 3.8 nM in assay [1]; 2300 nM in assay [2]; 1.7 nM in assay [3]; 3.8 nM in assay [4]; 2900 nM in assay [5]; 2 µM in assay [6]. Further, the “tumor proliferation rate(%)” value in assay [7] (setting [8]) worked out at 27.9%.

For `O=C(Nc1cc(Oc2cc(F)c(NC(=O)C3(C(=O)Nc4ccc(F)cc4)CC3)cc2F)ccn1)N1CC(O)C1` [Example 91, N-{2,5-Difluoro-4-[(2-{([3-hydroxyazetidin-1-yl)carbonyl]amino}pyridin-4-yl)oxy]phenyl}-N′-(4-fluorophenyl)cyclopropane-1,1-dicarboxamide], the IC50 was determined as 6 nM in assay [1]; 2000 nM in assay [2]; 6 nM in assay [3]; 6.4 nM in assay [4]; 1900 nM in assay [5]; 3 µM in assay [6]. The “tumor proliferation rate(%)” value in assay [7] (1 mg/kg weight/administration) is 73.0%; in assay [7] (3 mg/kg weight/administration) it was 55.5%; in assay [7] (10 mg/kg weight/administration) it was 27.4%; in assay [7] (setting [8]), 22.9%; in assay [7] (30 mg/kg weight/administration), 19.6%; in assay [7] (setting [9]) it was 16.0%.

(Values after patent US20120232049A1, “PYRIDINE OR PYRIMIDINE DERIVATIVE HAVING EXCELLENT CELL GROWTH INHIBITION EFFECT AND EXCELLENT ANTI-TUMOR EFFECT ON CELL STRAIN HAVING AMPLIFICATION OF HGFR GENE” (Eisai R&D Management Co., Ltd., priority 2007, published 2012).)
